Data published in US20090062253A1, “HETEROCYCLODIAZEPINE CANNABINOID RECEPTOR MODULATORS FOR TREATMENT OF DISEASE” (KALYPSYS, INC., priority 2007, published 2009).

Legend:
[1] = target: T1, human cannabinoid receptor type 1 (Homo sapiens, UniProt P21554); experiment: Human CB1 Radioligand Binding Assay (basis of selectivity CB2 vs. CB1)
T1 construct: purchased Perkin Elmer RBHCB1M; host or cells: HEK 293 EBNA cells
Outline: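 Filtration competition binding against [3H] CP-55,940 at its Kd, using membranes from HEK 293 EBNA cells expressing human CB1; 90 minutes at 30° C in 50 mM Tris-HCl pH 7.4, 2.5 mM EDTA, 5 mM MgCl2, 5.0 mg/ml BSA, 1% DMSO. Single point 10 uM or dose-response; 100 nM CP-55,940 defined 100% efficacy.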

[2] = target: T2, Human CB2 (Homo sapiens, UniProt P34972); experiment: Human CB2 Radioligand Binding Assay; conditions: membranes from stably transfected CHO CB2 cells; competition with [3H] CP-55,940; read-out: CB2 Ligand Binding Asssay
T2 construct: expressed in transfected cells; membrane preparation
Outline: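 Filtration competition against [3H]CP-55,940 at its Kd on membranes from CHO cells stably expressing human CB2; compounds at 10 uM single point or dose-response, 1% DMSO. Buffer 50 mM Tris-HCl pH 7.4, EGTA, MgCl2, 5.0 mg/ml BSA; 90 min at 30° C, scintillation read; 100 nM CP-55,940 = 100%.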

T2 sequence (P34972 whole entry): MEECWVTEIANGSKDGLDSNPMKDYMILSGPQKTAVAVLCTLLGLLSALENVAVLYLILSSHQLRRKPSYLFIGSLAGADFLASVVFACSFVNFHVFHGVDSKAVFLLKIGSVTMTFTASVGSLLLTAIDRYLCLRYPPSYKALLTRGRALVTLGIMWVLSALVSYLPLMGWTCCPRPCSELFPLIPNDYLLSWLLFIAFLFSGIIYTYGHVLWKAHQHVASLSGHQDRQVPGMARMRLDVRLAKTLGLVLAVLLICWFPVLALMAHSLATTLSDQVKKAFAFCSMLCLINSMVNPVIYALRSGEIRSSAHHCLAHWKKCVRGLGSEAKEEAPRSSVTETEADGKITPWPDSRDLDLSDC
T1 sequence (P21554 whole entry): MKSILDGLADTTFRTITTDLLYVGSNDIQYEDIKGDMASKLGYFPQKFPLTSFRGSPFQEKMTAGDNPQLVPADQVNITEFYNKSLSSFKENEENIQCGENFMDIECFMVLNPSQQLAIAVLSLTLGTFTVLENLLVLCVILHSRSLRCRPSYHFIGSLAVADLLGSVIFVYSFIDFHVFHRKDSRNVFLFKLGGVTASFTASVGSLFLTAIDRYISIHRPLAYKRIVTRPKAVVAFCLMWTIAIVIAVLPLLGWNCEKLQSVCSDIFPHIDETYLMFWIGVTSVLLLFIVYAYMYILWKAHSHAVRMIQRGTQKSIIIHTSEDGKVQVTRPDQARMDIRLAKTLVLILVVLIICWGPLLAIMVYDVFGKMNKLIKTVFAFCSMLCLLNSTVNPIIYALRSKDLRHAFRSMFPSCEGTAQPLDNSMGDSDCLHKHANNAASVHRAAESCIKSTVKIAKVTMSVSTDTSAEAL

CC(C)(C)c1ccc(C2c3cccn3CCCN2C(=O)Cc2c(F)cccc2F)cc1 (centres unmarked) [Example 51, 1-(1-(4-tert-Butylphenyl)-4,5-dihydro-1H-pyrrolo[1,2-a][1,4]diazepin-2(3H)-yl)-2-(2,6-difluorophenyl)ethanone]
Selectivity, CB2 vs. CB1 [1]: − (− indicates < 10-fold) | IC50 (radioligand displacement) [2]: > 1000 nM

CC(C)(C)c1ccc(C2c3cccn3CCCN2C(=O)CN2CCOCC2)cc1 (centres unmarked) [Example 52, 1-(1-(4-tert-Butylphenyl)-4,5-dihydro-1H-pyrrolo[1,2-a][1,4]diazepin-2(3H)-yl)-2-morpholinoethanone]
Selectivity, CB2 vs. CB1 [1]: − (− indicates < 10-fold) | IC50 (radioligand displacement) [2]: > 1000 nM

CC(C)(C)c1ccc(C2c3cccn3CCCN2c2nc3ccccc3o2)cc1 (centres unmarked) [Example 53, 2-(1-(4-tert-Butylphenyl)-4,5-dihydro-1H-pyrrolo[1,2-a][1,4]diazepin-2(3H)-yl)benzo[d]oxazole]
Selectivity, CB2 vs. CB1 [1]: − (− indicates < 10-fold) | IC50 (radioligand displacement) [2]: > 1000 nM

CC(C)(C)c1ccc(Cc2ccc3n2CCCN3c2nc3ccccc3o2)cc1 [Example 54, 2-(6-(4-tert-Butylbenzyl)-3,4-dihydropyrrolo[1,2-a]pyrimidin-1(2H)-yl)benzo[d]oxazole]
Selectivity, CB2 vs. CB1 [1]: − (− indicates < 10-fold) | IC50 (radioligand displacement) [2]: > 1000 nM

CC(C)(C)c1ccc(C2=C(C(=O)Nc3ccc(F)cc3F)CCn3cccc32)cc1 [Example 56, 8-(4-tert-Butylphenyl)-N-(2,4-difluorophenyl)-5,6-dihydroindolizine-7-carboxamide]
Selectivity, CB2 vs. CB1 [1]: − (− indicates < 10-fold) | IC50 (radioligand displacement) [2]: > 1000 nM

CC(C)(C)c1ccc(C2=C(C(=O)Nc3ccc(Cl)cc3Cl)CCn3cccc32)cc1 [Example 57, 8-(4-tert-Butylphenyl)-N-(2,4-dichlorophenyl)-5,6-dihydroindolizine-7-carboxamide]
Selectivity, CB2 vs. CB1 [1]: − (− indicates < 10-fold) | IC50 (radioligand displacement) [2]: > 1000 nM

CC(C)(C)c1ccc(C2=C(C(=O)Nc3ccc(OC(F)(F)F)cc3)CCn3cccc32)cc1 [Example 58, 8-(4-tert-Butylphenyl)-N-(4-(trifluoromethoxy)phenyl)-5,6-dihydroindolizine-7-carboxamide]
Selectivity, CB2 vs. CB1 [1]: − (− indicates < 10-fold) | IC50 (radioligand displacement) [2]: > 1000 nM

CC(C)(C)c1ccc(C2=C(C(=O)Nc3ccc(F)c(F)c3)CCn3cccc32)cc1 [Example 59, 8-(4-tert-Butylphenyl)-N-(3,4-difluorophenyl)-5,6-dihydroindolizine-7-carboxamide]
Selectivity, CB2 vs. CB1 [1]: + (+ indicates > 10-fold) | IC50 (radioligand displacement) [2]: < 1000 nM

CC(C)(C)c1ccc(C2=C(C(=O)Nc3ccc(Cl)cc3)CCn3cccc32)cc1 [Example 60, 8-(4-tert-Butylphenyl)-N-(4-chlorophenyl)-5,6-dihydroindolizine-7-carboxamide]
Selectivity, CB2 vs. CB1 [1]: − (− indicates < 10-fold) | IC50 (radioligand displacement) [2]: < 1000 nM

CC(C)(C)c1ccc(C2=C(C(=O)Nc3ccc(F)cc3F)CCCn3cccc32)cc1 [Example 62, (E)-9-(4-tert-Butylphenyl)-N-(2,4-difluorophenyl)-6,7-dihydro-5H-pyrrolo[1,2-a]azepine-8-carboxamide]
Selectivity, CB2 vs. CB1 [1]: − (− indicates < 10-fold) | IC50 (radioligand displacement) [2]: < 1000 nM

CC(C)(C)c1ccc(C2=C(C(=O)Nc3ccc(Cl)cc3Cl)CCCn3cccc32)cc1 [Example 63, (E)-9-(4-tert-Butylphenyl)-N-(2,4-dichlorophenyl)-6,7-dihydro-5H-pyrrolo[1,2-a]azepine-8-carboxamide]
Selectivity, CB2 vs. CB1 [1]: − (− indicates < 10-fold) | IC50 (radioligand displacement) [2]: < 1000 nM

CC(C)(C)c1ccc(C2=C(C(=O)Nc3ccc(C(F)(F)F)cc3)CCCn3cccc32)cc1 [Example 64, (E)-9-(4-tert-Butylphenyl)-N-(4-(trifluoromethyl)phenyl)-6,7-dihydro-5H-pyrrolo[1,2-a]azepine-8-carboxamide]
Selectivity, CB2 vs. CB1 [1]: − (− indicates < 10-fold) | IC50 (radioligand displacement) [2]: < 1000 nM

CC(C)(C)c1ccc(C2=C(C(=O)Nc3ccc(F)c(F)c3)CCCn3cccc32)cc1 [Example 65, (E)-9-(4-tert-Butylphenyl)-N-(3,4-difluorophenyl)-6,7-dihydro-5H-pyrrolo[1,2-a]azepine-8-carboxamide]
Selectivity, CB2 vs. CB1 [1]: + (+ indicates > 10-fold) | IC50 (radioligand displacement) [2]: < 1000 nM

CC(C)(C)c1ccc(C2=C(C(=O)Nc3ccc(Cl)cc3)CCCn3cccc32)cc1 [Example 66, (E)-9-(4-tert-Butylphenyl)-N-(4-chlorophenyl)-6,7-dihydro-5H-pyrrolo[1,2-a]azepine-8-carboxamide]
Selectivity, CB2 vs. CB1 [1]: + (+ indicates > 10-fold) | IC50 (radioligand displacement) [2]: < 1000 nM

O=C(Nc1ccc(F)cc1F)C1=C(c2ccccc2)c2cccn2CCC1 [Example 73, (E)-N-(2,4-Difluorophenyl)-9-phenyl-6,7-dihydro-5H-pyrrolo[1,2-a]azepine-8-carboxamide]
Selectivity, CB2 vs. CB1 [1]: − (− indicates < 10-fold) | IC50 (radioligand displacement) [2]: > 1000 nM

O=C(Nc1ccc(C(F)(F)F)cc1)C1=C(c2ccccc2)c2cccn2CCC1 [Example 74, (E)-9-Phenyl-N-(4-(trifluoromethyl)phenyl)-6,7-dihydro-5H-pyrrolo[1,2-a]azepine-8-carboxamide]
Selectivity, CB2 vs. CB1 [1]: − (− indicates < 10-fold) | IC50 (radioligand displacement) [2]: > 1000 nM

O=C(Nc1ccc(F)c(F)c1)C1=C(c2ccccc2)c2cccn2CCC1 [Example 75, (E)-N-(3,4-Difluorophenyl)-9-phenyl-6,7-dihydro-5H-pyrrolo[1,2-a]azepine-8-carboxamide]
Selectivity, CB2 vs. CB1 [1]: − (− indicates < 10-fold) | IC50 (radioligand displacement) [2]: < 1000 nM

CC(C)(C)c1ccc(C2=C(C(=O)Nc3ccc(Cl)cc3)CCCn3cncc32)cc1 [Example 77, (E)-9-(4-tert-Butylphenyl)-N-(4-chlorophenyl)-6,7-dihydro-5H-imidazo[1,5-a]azepine-8-carboxamide]
Selectivity, CB2 vs. CB1 [1]: − (− indicates < 10-fold) | IC50 (radioligand displacement) [2]: > 1000 nM

CC(C)(C)c1ccc(C2=C(C(=O)Nc3ccc(F)cc3F)CCCn3cncc32)cc1 [Example 78, ((E)-9-(4-tert-Butylphenyl)-N-(2,4-difluorophenyl)-6,7-dihydro-5H-imidazo[1,5-a]azepine-8-carboxamide]
Selectivity, CB2 vs. CB1 [1]: − (− indicates < 10-fold) | IC50 (radioligand displacement) [2]: > 1000 nM

CC(C)(C)c1ccc(C2=C(C(=O)Nc3ccc(Cl)c(Cl)c3)CCCn3cncc32)cc1 [Example 79, (E)-9-(4-tert-Butylphenyl)-N-(3,4-dichlorophenyl)-6,7-dihydro-5H-imidazo[1,5-a]azepine-8-carboxamide]
Selectivity, CB2 vs. CB1 [1]: − (− indicates < 10-fold) | IC50 (radioligand displacement) [2]: < 1000 nM

CC(C)(C)c1ccc(C2=C(C(=O)Nc3ccc(Cl)cc3Cl)CCCn3cncc32)cc1 [Example 80, (E)-9-(4-tert-Butylphenyl)-N-(2,4-dichlorophenyl)-6,7-dihydro-5H-imidazo[1,5-a]azepine-8-carboxamide]
Selectivity, CB2 vs. CB1 [1]: − (− indicates < 10-fold) | IC50 (radioligand displacement) [2]: > 1000 nM

CC(C)(C)c1ccc(CC2=C(C(=O)Nc3ccc(Cl)cc3)CCCn3cncc32)cc1 [Example 82, (E)-9-(4-tert-Butylbenzyl)-N-(4-chlorophenyl)-6,7-dihydro-5H-imidazo[1,5-a]azepine-8-carboxamide]
Selectivity, CB2 vs. CB1 [1]: − (− indicates < 10-fold) | IC50 (radioligand displacement) [2]: > 1000 nM

CC(C)(C)c1ccc(C2=C(NC(=O)Nc3ccc(Cl)cc3)CCCn3cccc32)cc1 [Example 83, (E)-1-(9-(4-tert-Butylphenyl)-6,7-dihydro-5H-pyrrolo[1,2-a]azepin-8-yl)-3-(4-chlorophenyl)urea]
Selectivity, CB2 vs. CB1 [1]: + (+ indicates > 10-fold) | IC50 (radioligand displacement) [2]: < 1000 nM

CC(C)(C)c1ccc(C2=C(NC(=O)Nc3ccc(F)cc3F)CCCn3cccc32)cc1 [Example 84, (E)-1-(9-(4-tert-Butylphenyl)-6,7-dihydro-5H-pyrrolo[1,2-a]azepin-8-yl)-3-(2,4-difluorophenyl)urea]
Selectivity, CB2 vs. CB1 [1]: + (+ indicates > 10-fold) | IC50 (radioligand displacement) [2]: < 1000 nM

CC(C)(C)c1ccc(C2=C(NC(=O)Nc3ccc(F)c(F)c3)CCCn3cccc32)cc1 [Example 85, (E)-1-(9-(4-tert-Butylphenyl)-6,7-dihydro-5H-pyrrolo[1,2-a]azepin-8-yl)-3-(3,4-difluorophenyl)urea]
Selectivity, CB2 vs. CB1 [1]: + (+ indicates > 10-fold) | IC50 (radioligand displacement) [2]: < 1000 nM

CC(C)(C)c1ccc(C2=C(NC(=O)Nc3ccc(Cl)cc3Cl)CCCn3cccc32)cc1 [Example 86, (E)-1-(9-(4-tert-Butylphenyl)-6,7-dihydro-5H-pyrrolo[1,2-a]azepin-8-yl)-3-(2,4-dichlorophenyl)urea]
Selectivity, CB2 vs. CB1 [1]: + (+ indicates > 10-fold) | IC50 (radioligand displacement) [2]: < 1000 nM

CC(C)(C)c1ccc(C2=C(NC(=O)Nc3ccc(Cl)c(Cl)c3)CCCn3cccc32)cc1 [Example 87, (E)-1-(9-(4-tert-Butylphenyl)-6,7-dihydro-5H-pyrrolo[1,2-a]azepin-8-yl)-3-(3,4-dichlorophenyl)urea]
Selectivity, CB2 vs. CB1 [1]: + (+ indicates > 10-fold) | IC50 (radioligand displacement) [2]: > 1000 nM

CC(C)(C)c1ccc(C2=C(NC(=O)Nc3ccc(C(F)(F)F)cc3)CCCn3cccc32)cc1 [Example 88, (E)-1-(9-(4-tert-Butylphenyl)-6,7-dihydro-5H-pyrrolo[1,2-a]azepin-8-yl)-3-(4-(trifluoromethyl)phenyl)urea]
Selectivity, CB2 vs. CB1 [1]: + (+ indicates > 10-fold) | IC50 (radioligand displacement) [2]: < 1000 nM
